Experiment [1] relates to MDA-MB-436 xenograft tumour. The experiment can be described thus: Anti-tumour effect in MDA-MB-436 subcutaneous xenograft tumour mouse model. It counts as in vivo. Conditions: same dose, MDA-MB-436 xenograft mice. The protocol:
Example 4 was further verified in vivo. A subcutaneous xenograft tumour mouse model of the BRCA1-mutated MDA-MB-436 cell line was selected. Human breast cancer MDA-MB-436 cells (ATCC, HTB-130) were cultured in vitro in a monolayer, with the culture conditions of L-15 medium supplemented with 10% foetal bovine serum, 1% penicillin-streptomycin solution, and 0.01 mg/mL bovine insulin, and cultured at 37°C in a CO2-free incubator. The cells were routinely digested and passaged twice a week using trypsin-EDTA. When the cell confluency reached 80%-90%, the cells were harvested and counted, and 0.2 mL of 1 × 10^7 MDA-MB-436 cells were subcutaneously inoculated on the right back of each mouse (PBS : Matrigel = 1 : 1). When the mean tumour volume reached 152 mm^3, the mice were grouped for drug administration. The day of drug administration was set as Day 0. The tumour volume and the body weight of the mice were monitored twice a week, and the drug treatment lasted for 28 days.
The diameter of the tumour was measured with a vernier calliper. The tumour volume is calculated according to the following equation: V = 0.5a × b^2, where a and b represent the long and short diameters of the tumour, respectively. The tumour inhibition effect of the compound was evaluated by relative tumour shrinkage rate Reg%. Reg% reflects the rate of tumour volume reduction after treatment. Reg% = (V0-Vt)/V0×100%, where V0 is the tumour volume measured at the time of grouping for drug administration (i.e., d0), and Vt is the tumour volume measured at a certain time point.
The criteria for compound response in the mouse model were adapted from mRECIST (Modified Response Evaluation Criteria in Solid Tumours) (Gao et al, 2015), and are specifically defined as follows: [formula] • PR (Partial Response): BestResponse < −50% and BestAvgResponse < −20%; [formula] • SD (Stable Disease): BestResponse < 35% and BestAvgResponse < 30%; [formula] • PD (Progressive Disease): other cases; • ORR% is the sum of the proportions of Complete Response (CR) and Partial Response (PR).
Statistical analysis was performed using Prism software, including the mean value (Mean) and standard error of the mean (SEM) of the tumour volume at each time point for each group. For the statistical analysis of TV, the original TV data from each measurement were used to compare the differences between groups. Two-way ANOVA was applied to include the two factors, i.e., drug administration and time for analysis, followed by the Tukey's multiple comparisons test, wherein p < 0.05 was considered statistically significant.

In the next experiment the test system is A549 PARP2-KO cell line. The experiment can be described thus: Cellular PARylation inhibition, high-content imaging, PARP2-KO. It is filed as cell-based. Conditions: PARylation at the cellular level.
The next experiment concerns A549 WT. The experiment can be described thus: Cellular PARylation inhibition, high-content imaging, A549 WT. It counts as cell-based. Particulars: Homo sapiens, PARylation at the cellular level. The protocol: The inhibitory effect of the compounds on PARP1/PARP2 enzyme activity at the cellular level was detected using high-content imaging. A549 WT, PARP1-KO and PARP2-KO cell lines were established in-house, and the cells were revived. After the cells were stable, a sufficient number of cells were collected and 100 µL of the cell suspension was seeded into a 96-well plate. The next day, the example compounds with serially diluted concentrations were added. […] The plate was incubated for 1.5 hours (A549 WT and PARP2-KO cell lines) or 2 hours (PARP1-KO cell line). After removing the supernatant, 0.4 mM H2O2 was added and incubation was carried out for 10 minutes (A549 WT and PARP2-KO cell lines) or 1.5 mM H2O2 was added and incubation was carried out for 15 minutes (PARP1-KO cell line) to induce extensive cellular DNA damage. After removing the supernatant, the cells were fixed with 4% paraformaldehyde for 20 minutes, followed by treatment with 0.5% Triton X-100 for 20 minutes to increase the permeability of the cell membrane. After that, the cells were incubated with 3% BSA for 1 hour to prevent non-specific binding. […] The cell nuclei were stained for 30 minutes by adding 50 µL DAPI (invitrogen, R37606). After washing twice with PBS, images were acquired on OPERETTA CLS™ (PE) by scanning the cells under a 20x water objective lens in non-confocal mode, with 5 fields of view captured per well. […] The inhibition rate was calculated using the fluorescence values from the Max and Min wells, and the dose-response curve was fitted using the analysis software GraphPad Prism 5 to obtain the IC50 value of each compound for the enzyme activity.

The target of another experiment is T1, PARP11 (Homo sapiens, UniProt Q9NR21).
T1 construct: purchased BPS 80511
T1 sequence (Q9NR21 1-338): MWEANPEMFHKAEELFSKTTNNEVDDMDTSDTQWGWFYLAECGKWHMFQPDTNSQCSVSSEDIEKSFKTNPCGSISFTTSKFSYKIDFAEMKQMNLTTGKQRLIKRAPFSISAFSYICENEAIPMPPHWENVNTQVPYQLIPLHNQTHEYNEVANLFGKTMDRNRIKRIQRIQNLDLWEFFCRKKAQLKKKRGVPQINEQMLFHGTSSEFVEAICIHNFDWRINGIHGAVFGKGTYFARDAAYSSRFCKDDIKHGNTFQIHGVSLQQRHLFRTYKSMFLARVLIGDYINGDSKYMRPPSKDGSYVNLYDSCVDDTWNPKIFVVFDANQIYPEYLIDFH
The experiment can be described thus: Inhibition of PARP11 enzyme activity (chemiluminescent assay kit). It is filed as biochemical.

The next experiment has as its system DLD-1 WT. The experiment can be described thus: Anti-proliferative activity (CellTiter-Glo, 7 days), DLD-1 WT. It is filed as cell-based, human. The protocol: The anti-proliferation experiment of the compounds on tumour cells adopted the most widely used ATP concentration-based detection method at present. MDA-MB-231 and MDA-MB-436 cell lines were obtained from ATCC, DLD-1 human colourectal adenocarcinoma epithelial cells and DLD-1 BRCA2^-/- cells were obtained from Horizon, and the cells were revived. After the cells were stable, the cells were collected. When the viable cell count exceeded 90%, 450-500 cells were seeded into a 384-well plate. The next day, the example compounds with serially diluted concentrations were added. Only buffer was added to the Max well, and 50 µM AZD2281 was added to the Min well. The plate was incubated for 7 days, and on the eighth day, CellTiter-Glo® reagent (Promega, G7573) was added. The plate was incubated at room temperature for 30 minutes, and the values were read on Envision (PE). The inhibition rate was calculated using the fluorescence values from the Max and Min wells, and the dose-response curve was fitted using the analysis software GraphPad Prism 5 to obtain the IC50 value of each compound for the enzyme activity.
For orientation: ATP-based viability assays read luminescence as a measure of living cells.

On to `[2H]C([2H])([2H])NC(=O)c1ccc(N2CCN(Cc3cnc4c(N)c(CC)c(=O)[nH]c4c3)CC2)c(F)n1` [Example 4, 5-(4-((8-Amino-7-ethyl-6-oxo-5,6-dihydro-1,5-naphthyridin-3-yl)methyl)piperazin-1-yl)-6-fluoro-N-(methyl-d3)picolinamide], for which the tumour regression result in experiment [1] (FIG. 3) was “promoted tumour regression”. This molecule also displayed an ORR in experiment [1] (treatment 28 days) of 60%. The IC50 in the experiment on A549 PARP2-KO cell line (Homo sapiens, A549, read-out: PARP2-KO IC50) is 7.7 nM; with A549 WT, 5.2 nM; at PARP11 (enzyme activity) it was 422 nM; with DLD-1 WT (Homo sapiens, DLD-1, 168 h, BRCA2-normal, 7 days), greater than 10000 nM. In the experiment on A549 PARP2-KO cell line, the “PARP1 KO/PARP2 KO selectivity fold” value is given as greater than 5222 fold. For the same molecule, at PARP11 (ratio relative to the PARP1 enzyme activity), the “PARP11 multiple vs PARP1” value stood at 880. Also, the “inhibition on cell proliferation at the highest concentration” value with DLD-1 WT (BRCA2-normal DLD-1 cell line, 10 µM) is on record as “no detectable inhibition”.

Broadly, the IC50 is the point on the concentration scale where inhibition reaches its midpoint.

The values are drawn from patent EP4620956A1, “PARP1 INHIBITORS” (Zhejiang Yangli Pharmaceutical Technology Co., Ltd., priority 2022, dated 2024).
